From PubChem BioAssay AID2060500 (Molecular Pharmacology Branch, DTP, NCI, 2025)

System: 596521-263-R-J1-PDC complex spheroids, viability % of control
Experiment: Anticancer human tumor 596521-263-R-J1-PDC patient-derived soft tissue sarcoma cell line growth inhibition [GQUAD]
Details: for IC50: curve of first compound; for viability, T/C: stronger effect = lower value
In short: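 Multi-cell-type spheroids of tumor cells with HUVEC and mesenchymal stem cells, treated with drug combinations. Concentrations descend in half-log steps from near clinical Cmax, or from 10 microM where Cmax is unknown; viability read-out.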

[1] = second compound 0.0316 µM, first compound 0.0316 µM
[2] = second compound 0.0316 µM, first compound 0.1 µM
[3] = second compound 0.0316 µM, first compound 0.316 µM
[4] = second compound 0.0316 µM, first compound 1 µM
[5] = second compound 0.0316 µM, first compound 3.16 µM
[6] = second compound 0.0316 µM, first compound 10 µM
[7] = second compound 0.1 µM, first compound 0.0316 µM
[8] = second compound 0.1 µM, first compound 0.1 µM
[9] = second compound 0.1 µM, first compound 0.316 µM
[10] = second compound 0.1 µM, first compound 1 µM
[11] = second compound 0.1 µM, first compound 3.16 µM
[12] = second compound 0.1 µM, first compound 10 µM
[13] = second compound 0.316 µM, first compound 0.0316 µM
[14] = second compound 0.316 µM, first compound 0.1 µM
[15] = second compound 0.316 µM, first compound 0.316 µM
[16] = second compound 0.316 µM, first compound 1 µM
[17] = second compound 0.316 µM, first compound 3.16 µM
[18] = second compound 0.316 µM, first compound 10 µM
[19] = second compound 1 µM, first compound 0.0316 µM
[20] = second compound 1 µM, first compound 0.1 µM
[21] = second compound 1 µM, first compound 0.316 µM
[22] = second compound 1 µM, first compound 1 µM
[23] = second compound 1 µM, first compound 3.16 µM
[24] = second compound 1 µM, first compound 10 µM
[25] = second compound 3.16 µM, first compound 0.0316 µM
[26] = second compound 3.16 µM, first compound 0.1 µM
[27] = second compound 3.16 µM, first compound 0.316 µM
[28] = second compound 3.16 µM, first compound 1 µM
[29] = second compound 3.16 µM, first compound 3.16 µM
[30] = second compound 3.16 µM, first compound 10 µM
[31] = second compound 10 µM, first compound 0.0316 µM
[32] = second compound 10 µM, first compound 0.1 µM
[33] = second compound 10 µM, first compound 0.316 µM
[34] = second compound 10 µM, first compound 1 µM
[35] = second compound 10 µM, first compound 3.16 µM
[36] = second compound 10 µM, first compound 10 µM
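Also: spheroids exposed to drugs for 7 days before viability reading.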
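For viability, T/C in this document: 100% = DMSO vehicle control viability.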

Work on `COc1cccc2c1C(=O)c1c(O)c3c(c(O)c1C2=O)CC(O)(C(=O)CO)CC3OC1CC(N)C(O)C(C)O1` (stereo unspecified) + Cc1cnc(CNC(=O)c2c(=O)c3ccc(N4CCCN(C)CC4)nc3n3c2sc2ccccc23)cn1 yielded an IC50 (second compound 0.0316 µM) of 750 nM, an IC50 (second compound 0.1 µM) of 784 nM and an IC50 (second compound 0.316 µM) of 795 nM. It also gave an IC50 (second compound 1 µM) of 511 nM, an IC50 (second compound 3.16 µM) of 338 nM and an IC50 (second compound 10 µM) of less than 31.6 nM. For the same compound, the viability, T/C [1] was 98.3%, the viability, T/C [2] was 71.2% and the viability, T/C [3] was 66.6%. The viability, T/C [4] was 52.3%, the viability, T/C [5] was 26.5% and the viability, T/C [6] was 4.29%. For the same compound, the viability, T/C [7] was 87.2%, the viability, T/C [8] was 73.8% and the viability, T/C [9] was 57.1%. For the same compound, the viability, T/C [10] was 51.1%, the viability, T/C [11] was 31% and the viability, T/C [12] was 4.25%. The viability, T/C [13] was 78.7%, the viability, T/C [14] was 70.4% and the viability, T/C [15] was 55.5%. The viability, T/C [16] was 51.4%, the viability, T/C [17] was 29% and the viability, T/C [18] was 3.29%. It also gave a viability, T/C [19] of 69.6%, a viability, T/C [20] of 53% and a viability, T/C [21] of 50.7%. The viability, T/C [22] was 47.2%, the viability, T/C [23] was 30.7% and the viability, T/C [24] was 2.51%. The viability, T/C [25] was 50.7%, the viability, T/C [26] was 49% and the viability, T/C [27] was 52.7%. It also gave a viability, T/C [28] of 45.2%, a viability, T/C [29] of 23.8% and a viability, T/C [30] of 0.29%. For the same compound, the viability, T/C [31] was 46.8%, the viability, T/C [32] was 49.5% and the viability, T/C [33] was 46.4%. It also gave a viability, T/C [34] of 44.3%, a viability, T/C [35] of 11.4% and a viability, T/C [36] of 0.27%.

Compound `Cc1[nH]c2ccccc2c1CCNCc1ccc(/C=C/C(=O)NO)cc1` + Cc1cnc(CNC(=O)c2c(=O)c3ccc(N4CCCN(C)CC4)nc3n3c2sc2ccccc23)cn1 has an IC50 (second compound 0.0316 µM) of 44.4 nM, an IC50 (second compound 0.1 µM) of 57.5 nM and an IC50 (second compound 0.316 µM) of 49.3 nM. The IC50 (second compound 1 µM) was 39.4 nM, the IC50 (second compound 3.16 µM) was 18.5 nM and the IC50 (second compound 10 µM) was less than 0.999 nM. It also gave a viability, T/C (second compound 0.0316 µM, first compound 0.000999 µM) of 103%, a viability, T/C (second compound 0.0316 µM, first compound 0.00316 µM) of 88.9% and a viability, T/C (second compound 0.0316 µM, first compound 0.00999 µM) of 83.1%. For the same compound, the viability, T/C [1] was 58.4%, the viability, T/C (second compound 0.0316 µM, first compound 0.0999 µM) was 29.2% and the viability, T/C [3] was 2%. It also gave a viability, T/C (second compound 0.1 µM, first compound 0.000999 µM) of 99.9%, a viability, T/C (second compound 0.1 µM, first compound 0.00316 µM) of 81.8% and a viability, T/C (second compound 0.1 µM, first compound 0.00999 µM) of 79.7%. For the same compound, the viability, T/C [7] was 61.8%, the viability, T/C (second compound 0.1 µM, first compound 0.0999 µM) was 40.6% and the viability, T/C [9] was 2.65%. It also gave a viability, T/C (second compound 0.316 µM, first compound 0.000999 µM) of 83.2%, a viability, T/C (second compound 0.316 µM, first compound 0.00316 µM) of 73.9% and a viability, T/C (second compound 0.316 µM, first compound 0.00999 µM) of 67.8%. The viability, T/C [13] was 63.3%, the viability, T/C (second compound 0.316 µM, first compound 0.0999 µM) was 34.3% and the viability, T/C [15] was 2.74%. It also gave a viability, T/C (second compound 1 µM, first compound 0.000999 µM) of 65.2%, a viability, T/C (second compound 1 µM, first compound 0.00316 µM) of 67.5% and a viability, T/C (second compound 1 µM, first compound 0.00999 µM) of 67.8%. For the same compound, the viability, T/C [19] was 48%, the viability, T/C (second compound 1 µM, first compound 0.0999 µM) was 36.8% and the viability, T/C [21] was 0.29%. It also gave a viability, T/C (second compound 3.16 µM, first compound 0.000999 µM) of 49.9%, a viability, T/C (second compound 3.16 µM, first compound 0.00316 µM) of 54.4% and a viability, T/C (second compound 3.16 µM, first compound 0.00999 µM) of 54%. The viability, T/C [25] was 47.4%, the viability, T/C (second compound 3.16 µM, first compound 0.0999 µM) was 30.5% and the viability, T/C [27] was 0.21%. The viability, T/C (second compound 10 µM, first compound 0.000999 µM) was 41.9%, the viability, T/C (second compound 10 µM, first compound 0.00316 µM) was 19.3% and the viability, T/C (second compound 10 µM, first compound 0.00999 µM) was 43.1%. It also gave a viability, T/C [31] of 37.8%, a viability, T/C (second compound 10 µM, first compound 0.0999 µM) of 0.34% and a viability, T/C [33] of 0.24%.

`O=C(NO)c1cnc(N2CCN(S(=O)(=O)c3ccc4ccccc4c3)CC2)nc1` + Cc1cnc(CNC(=O)c2c(=O)c3ccc(N4CCCN(C)CC4)nc3n3c2sc2ccccc23)cn1 was tested, and the IC50 (second compound 0.0316 µM) was 111 nM, the IC50 (second compound 0.1 µM) was 102 nM and the IC50 (second compound 0.316 µM) was 110 nM. For the same compound, the IC50 (second compound 1 µM) was 104 nM, the IC50 (second compound 3.16 µM) was less than 31.6 nM and the IC50 (second compound 10 µM) was less than 31.6 nM. The viability, T/C [1] was 74.7%, the viability, T/C [2] was 53.5% and the viability, T/C [3] was 13%. It also gave a viability, T/C [4] of 0.6%, a viability, T/C [5] of 0.3% and a viability, T/C [6] of 0.28%. The viability, T/C [7] was 71.5%, the viability, T/C [8] was 50.3% and the viability, T/C [9] was 17.4%. The viability, T/C [10] was 0.78%, the viability, T/C [11] was 0.32% and the viability, T/C [12] was 0.29%. For the same compound, the viability, T/C [13] was 66.5%, the viability, T/C [14] was 52.4% and the viability, T/C [15] was 19.1%. For the same compound, the viability, T/C [16] was 0.46%, the viability, T/C [17] was 0.21% and the viability, T/C [18] was 0.18%. For the same compound, the viability, T/C [19] was 53.9%, the viability, T/C [20] was 50.6% and the viability, T/C [21] was 19.6%. It also gave a viability, T/C [22] of 0.17%, a viability, T/C [23] of 0.77% and a viability, T/C [24] of 1.29%. The viability, T/C [25] was 48.6%, the viability, T/C [26] was 42.5% and the viability, T/C [27] was 16.1%. It also gave a viability, T/C [28] of 0.13%, a viability, T/C [29] of 0.4% and a viability, T/C [30] of 0.75%. It also gave a viability, T/C [31] of 23.6%, a viability, T/C [32] of 13.2% and a viability, T/C [33] of 0.25%. The viability, T/C [34] was 0.16%, the viability, T/C [35] was 0.89% and the viability, T/C [36] was 0.27%.
